Several values for one entry are separate records, joined by “and”; a condition that tells them apart may be missing. Identical values can stand only once.
Tested on: A498 complex spheroid viability
Assay: Anticancer human tumor A498 cell line growth inhibition;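 note: spheroids exposed to agents for seven days before readout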;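 for viability, T/C: 100% = DMSO vehicle-treated spheroids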
Details: for viability, T/C: stronger effect = lower value
From the text: Multicellular complex tumor spheroid response to LSD1 Inhibitor Iadademstat in combination with a variety of drugs and investigational agents in selected tumor cell lines
The current study was undertaken to assess response to LSD1 inhibitors in combination with standard-of-care drugs and investigational agents in solid tumor complex spheroid models as well as in the K-562 leukemia. Complex spheroids include a stromal component modeled by human endothelial cells (HUVEC) and fibroblasts modeled by human mesenchymal stem cells (MSCs). The concentration ranges selected for each drug and investigational agent were based upon clinically achievable concentrations if the clinical Cmax of the agent was known.
Compounds. The drugs and investigational agents used in this study are listed on Table 1. All of the agents used, including staurosporine (NSC755774) and gemcitabine (NSC613327), were obtained from the Developmental Therapeutics Program, NCI. FDA-approved anticancer drugs are available from the NCI at http://dtp.nci.nih.gov/branches/dscb/oncology_drugset_explanation.html. Drugs and investigational agents were >95% pure by proton nuclear magnetic resonance (NMR) and liquid chromatography/mass spectrometry (LC/MS). Stock solutions were prepared at 400x in DMSO, stored at -70 degrees C, and diluted in fresh medium prior to their use. The final concentration of DMSO in cell culture wells never exceeded 0.25% (v/v). The FDA-approved anticancer drug set is available from the Developmental Therapeutics Program at https://dtp.cancer.gov/organization/dscb/obtaining/available_plates.htm. All drugs and investigational agents were tested over a range starting from a high concentration at or near the clinical Cmax and decreasing in half-log increments. If the clinical Cmax for an agent had not been determined, the highest concentration tested was 10 microM.
Cell Lines. The patient-derived cancer cell (PDC) lines: 292921-168-R-J2-PDC, K24384-001-R-PDC, and 521955-158-R2-J5-PDC pancreatic carcinomas, 556581-035-R-J1 ovarian carcinoma, 324938-238-R-J1-PDC, 855422-203-R-J1-PDC and 883617-216-R-J1-PDC urothelial bladder carcinomas, 743489-274-T-PDC renal cell carcinoma, 138582-R-J1 Merkel cell tumor, K60290-347-R-J1 and K57222-313-R-J1-PDC glioblastomas, 653999-131-R-J2-PDC, LG0703-F948-PDC, and 349418-098-R-PDC non-small cell lung carcinomas, 885512-296-R-J2-PDC, 171881-019-R-J1-PDC breast carcinomas and 186277-243-T-J2-PDC and 233499-124-R-J2-PDC colon carcinomas were obtained from the NCI Patient-Derived Models Repository (PDMR, https://pdmr.cancer.gov). The established cell lines NCI/ADR-RES (RRID:CVCL_14520 and OVCAR-5 (RRID:CVCL_1628) ovarian carcinomas, 786-O (RRID:CVCL_1051) and A498 (RRID:CVCL_A498) renal cell carcinoma, NCI-H211 (ATCC, cat. CRL-5824; RRID:CVCL_1529), NCI-H196 (ATCC, cat. CRL-5823, RRID:CVCL_1509), SW 1271 (ATCC, cat. CRL-2177, RRID:CVCL_1716) and NCI-H1876 (ATCC, cat. CRL-5902, RRID:CVCL_1503) small cell lung carcinomas, MDA-MB-231 (RRID:CVCL_0062) and MDA-MB-468 (RRID:CVCL_0419)breast carcinomas (10-12). Pooled donor human umbilical vein endothelial cells (HUVEC, Lonza, cat. CC-2519) and human mesenchymal stem cells (hMSC, Lonza, cat. PT-2501) were purchased from Lonza (Walkersville, MD).
Cell Culture. All cells were maintained in an incubator at 37 degrees C and 5% CO2 with 95% humidity. The PDC lines were cultured according to standard operating procedures established by the NCI PDMR (https://pdmr.cancer.gov). Briefly all PDCs were thawed and cultured in Matrigel-coated flasks prepared with a working solution of 1X Ham's F-12 nutrient mix, without supplementation (Invitrogen, Waltham, MA, cat. 11765054), 100 U/mL penicillin-streptomycin (Invitrogen, cat. 15140122), and 2.5% Matrigel (Corning Inc., Corning, NY, cat. 354248) for the first three passages. […]

[1] = curve of first compound, second compound 0.1 µM
[2] = curve of first compound, second compound 0.316 µM
[3] = curve of first compound, second compound 1 µM
[4] = curve of first compound, second compound 3.16 µM
[5] = curve of first compound, second compound 10 µM

Q: What does the source list for `Nc1ccn(C2OC(CO)C(O)C2(F)F)c(=O)n1` (centres undefined) + NC1CCC(NC2CC2c2ccccc2)CC1?
A: IC50 [1]: < 0.949 nM; IC50 [2]: < 0.949 nM; IC50 [3]: < 0.949 nM; IC50 [4]: < 0.949 nM; IC50 [5]: < 0.949 nM; viability, T/C (second compound 0.1 µM, first compound 0.000949 µM): 25.7%; viability, T/C (second compound 0.1 µM, first compound 0.003 µM): 32.9%; viability, T/C (second compound 0.1 µM, first compound 0.00949 µM): 41.2%; viability, T/C (second compound 0.1 µM, first compound 0.03 µM): 38%; viability, T/C (second compound 0.1 µM, first compound 0.0949 µM): 36.8%; viability, T/C (second compound 0.1 µM, first compound 0.3 µM): 29.9%; viability, T/C (second compound 0.316 µM, first compound 0.000949 µM): 24.3%; viability, T/C (second compound 0.316 µM, first compound 0.003 µM): 33.9%; viability, T/C (second compound 0.316 µM, first compound 0.00949 µM): 44.2%; viability, T/C (second compound 0.316 µM, first compound 0.03 µM): 43.3%; viability, T/C (second compound 0.316 µM, first compound 0.0949 µM): 36.8%; viability, T/C (second compound 0.316 µM, first compound 0.3 µM): 31.1%; viability, T/C (second compound 1 µM, first compound 0.000949 µM): 21.7%; viability, T/C (second compound 1 µM, first compound 0.003 µM): 32.8%; viability, T/C (second compound 1 µM, first compound 0.00949 µM): 43.2%; viability, T/C (second compound 1 µM, first compound 0.03 µM): 40.8%; viability, T/C (second compound 1 µM, first compound 0.0949 µM): 29.9%; viability, T/C (second compound 1 µM, first compound 0.3 µM): 29.3%; viability, T/C (second compound 3.16 µM, first compound 0.000949 µM): 23.8%; viability, T/C (second compound 3.16 µM, first compound 0.003 µM): 30.5%; viability, T/C (second compound 3.16 µM, first compound 0.00949 µM): 38.2%; viability, T/C (second compound 3.16 µM, first compound 0.03 µM): 38.2%; viability, T/C (second compound 3.16 µM, first compound 0.0949 µM): 30.8%; viability, T/C (second compound 3.16 µM, first compound 0.3 µM): 30.3%; viability, T/C (second compound 10 µM, first compound 0.000949 µM): 22.3%; viability, T/C (second compound 10 µM, first compound 0.003 µM): 26.7%; viability, T/C (second compound 10 µM, first compound 0.00949 µM): 39.8%; viability, T/C (second compound 10 µM, first compound 0.03 µM): 38.5%; viability, T/C (second compound 10 µM, first compound 0.0949 µM): 27.9%; viability, T/C (second compound 10 µM, first compound 0.3 µM): 25.5%

Q: With `CC1COCCN1c1cc(-c2ccnn2C)c2ccnc(-c3ccn[nH]3)c2n1` (centres undefined) as the compound, how does the viability, T/C (compound 0.00316 µM) read?
A: The viability, T/C was 103% and 100%.

Q: And the viability, T/C (compound 0.01 µM)?
A: The viability, T/C was 82% and 81.8%.

Q: What about the viability, T/C (compound 0.0316 µM) of the same compound?
A: Its viability, T/C is 36.7% and 37.3%.

Q: What about the viability, T/C (compound 0.1 µM) of the same compound?
A: Its viability, T/C is 18.8% and 22.5%.

Q: And the viability, T/C (compound 0.316 µM)?
A: The viability, T/C was 14.9% and 16.1%.

Q: And the viability, T/C (compound 1 µM)?
A: Its viability, T/C is 11.2% and 10.8%.

Q: And the IC50 (curve of compound)?
A: Its IC50 is 22.8 nM and 23.4 nM.

Q: What does the source list for `O=C(c1cc(Cc2n[nH]c(=O)c3ccccc23)ccc1F)N1CCN(C(=O)C2CC2)CC1`?
A: viability, T/C (compound 0.0316 µM): 99% and 102%; viability, T/C (compound 0.1 µM): 108% and 105%; viability, T/C (compound 0.316 µM): 96% and 101%; viability, T/C (compound 1 µM): 102% and 101%; viability, T/C (compound 3.16 µM): 103% and 93.4%; viability, T/C (compound 10 µM): 88.9% and 84.9%; IC50 (curve of compound): > 10000 nM

Q: What does the source list for `COc1cc(Nc2ncc3c(n2)-c2ccc(Cl)cc2C(c2c(F)cccc2OC)=NC3)ccc1C(=O)O` + NC1CCC(NC2CC2c2ccccc2)CC1?
A: IC50 [1]: 256 nM; IC50 [2]: 454 nM; IC50 [3]: 415 nM; IC50 [4]: 291 nM; IC50 [5]: 523 nM; viability, T/C (second compound 0.1 µM, first compound 0.00316 µM): 86.1%; viability, T/C (second compound 0.1 µM, first compound 0.01 µM): 72.4%; viability, T/C (second compound 0.1 µM, first compound 0.0316 µM): 66.2%; viability, T/C (second compound 0.1 µM, first compound 0.1 µM): 56%; viability, T/C (second compound 0.1 µM, first compound 0.316 µM): 47.7%; viability, T/C (second compound 0.1 µM, first compound 1 µM): 43.2%; viability, T/C (second compound 0.316 µM, first compound 0.00316 µM): 89.6%; viability, T/C (second compound 0.316 µM, first compound 0.01 µM): 80.1%; viability, T/C (second compound 0.316 µM, first compound 0.0316 µM): 74.5%; viability, T/C (second compound 0.316 µM, first compound 0.1 µM): 63%; viability, T/C (second compound 0.316 µM, first compound 0.316 µM): 50.5%; viability, T/C (second compound 0.316 µM, first compound 1 µM): 45.9%; viability, T/C (second compound 1 µM, first compound 0.00316 µM): 80.2%; viability, T/C (second compound 1 µM, first compound 0.01 µM): 78.3%; viability, T/C (second compound 1 µM, first compound 0.0316 µM): 73.4%; viability, T/C (second compound 1 µM, first compound 0.1 µM): 55.5%; viability, T/C (second compound 1 µM, first compound 0.316 µM): 57.1%; viability, T/C (second compound 1 µM, first compound 1 µM): 40.9%; viability, T/C (second compound 3.16 µM, first compound 0.00316 µM): 83.1%; viability, T/C (second compound 3.16 µM, first compound 0.01 µM): 70%; viability, T/C (second compound 3.16 µM, first compound 0.0316 µM): 73.1%; viability, T/C (second compound 3.16 µM, first compound 0.1 µM): 55.1%; viability, T/C (second compound 3.16 µM, first compound 0.316 µM): 51%; viability, T/C (second compound 3.16 µM, first compound 1 µM): 39.1%; viability, T/C (second compound 10 µM, first compound 0.00316 µM): 73%; viability, T/C (second compound 10 µM, first compound 0.01 µM): 64.3%; viability, T/C (second compound 10 µM, first compound 0.0316 µM): 72.3%; viability, T/C (second compound 10 µM, first compound 0.1 µM): 61.5%; viability, T/C (second compound 10 µM, first compound 0.316 µM): 56.8%; viability, T/C (second compound 10 µM, first compound 1 µM): 42.1%

Reference: PubChem BioAssay AID1918947 (Molecular Pharmacology Branch, DTP, NCI, 2023)
